In publication PMC6272905, “In Vitro and In Vivo Characterization of Selected Fluorine-18 Labeled Radioligands for PET Imaging of the Dopamine D3 Receptor” (Molecules, 2016):
Values joined by “and” are separate entries in the source; they are usually repeats but may differ in a detail not shown here. Equal entries are not always repeated.

Tests used:
[1] = set-up: method as in PMID 24339325, PMID 26707848; conditions: over 120 min, previously reported; cited from earlier work
[2] = target: T1, P-gp (Homo sapiens, UniProt P08183); experiment: P-gp inhibition assay (cellular uptake) in Caco-2 cells; assay type: cell-based
T1 construct: endogenous in cells; host or cells: Caco-2
T1 sequence (P08183 whole entry): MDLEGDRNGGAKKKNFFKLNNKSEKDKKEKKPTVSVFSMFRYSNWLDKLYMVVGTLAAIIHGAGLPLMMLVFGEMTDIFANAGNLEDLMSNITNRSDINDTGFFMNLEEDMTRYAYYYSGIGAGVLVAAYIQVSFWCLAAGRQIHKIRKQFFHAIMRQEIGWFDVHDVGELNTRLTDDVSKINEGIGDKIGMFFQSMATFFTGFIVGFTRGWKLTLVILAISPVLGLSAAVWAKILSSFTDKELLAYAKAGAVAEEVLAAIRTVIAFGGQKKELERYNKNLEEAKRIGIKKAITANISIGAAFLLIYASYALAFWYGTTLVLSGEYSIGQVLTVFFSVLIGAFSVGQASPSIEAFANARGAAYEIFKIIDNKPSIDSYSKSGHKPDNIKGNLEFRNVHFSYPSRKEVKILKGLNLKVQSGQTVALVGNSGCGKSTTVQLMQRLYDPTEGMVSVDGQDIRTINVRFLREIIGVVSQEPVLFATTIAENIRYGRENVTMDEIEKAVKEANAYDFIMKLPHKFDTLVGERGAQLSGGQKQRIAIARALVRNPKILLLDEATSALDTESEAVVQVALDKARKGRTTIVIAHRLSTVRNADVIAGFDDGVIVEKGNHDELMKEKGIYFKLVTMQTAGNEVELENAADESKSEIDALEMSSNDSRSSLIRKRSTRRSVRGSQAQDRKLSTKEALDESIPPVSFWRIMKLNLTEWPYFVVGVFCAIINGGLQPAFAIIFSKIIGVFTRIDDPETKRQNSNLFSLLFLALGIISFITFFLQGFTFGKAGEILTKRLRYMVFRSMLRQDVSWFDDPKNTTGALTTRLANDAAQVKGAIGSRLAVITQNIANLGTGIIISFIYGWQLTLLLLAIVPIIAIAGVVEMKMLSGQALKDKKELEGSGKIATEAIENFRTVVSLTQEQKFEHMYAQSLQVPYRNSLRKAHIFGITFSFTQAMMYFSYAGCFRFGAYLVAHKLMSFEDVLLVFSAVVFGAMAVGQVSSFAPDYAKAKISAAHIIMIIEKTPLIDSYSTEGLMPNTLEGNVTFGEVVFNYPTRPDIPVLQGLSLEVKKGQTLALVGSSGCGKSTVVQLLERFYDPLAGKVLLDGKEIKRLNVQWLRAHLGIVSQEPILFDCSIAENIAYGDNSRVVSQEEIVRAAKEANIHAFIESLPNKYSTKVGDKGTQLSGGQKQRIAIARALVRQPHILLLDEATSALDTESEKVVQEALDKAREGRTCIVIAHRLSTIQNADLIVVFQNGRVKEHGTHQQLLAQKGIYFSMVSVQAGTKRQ
Experimental: (§1) EA.hy926 cells were seeded in culture medium at confluency the day prior to experiment or in case of the Caco-2 cells two days prior to experiment in 24-multiwell plates (Greiner Bio-One International GmbH, Kremsmünster, Austria). On the day of the experiment the culture medium was removed and the cells were washed once with PBS (500 µL). Culture medium supplemented with cyclosporine-A (5 µM for EA.hy926 and 10 µM for Caco-2) was added and the cells were incubated at 37 °C for 30 min. Afterwards 1 MBq of [^18F]2b was added to each well and incubated for further 30, 60 and 90 min. After incubation cells were washed with ice cold PBS (500 µL) and lysated with 0.1 M NaOH. The medium and lysates were analysed in the gamma-counter. To identify cyclosporine-A induced accumulation the experiment was also performed using culture medium lacking cyclosporine-A. As positive control the experiment was performed with ^99mTc-MIBI (100 kBq/well), a known P-gp substrate. To determine the lowermost concentration with which a maximum effect was obtained, cyclosporine-A was applied in a range of 0–50 µM and observed in a time frame of 30–120 min for both cell lines.

[3] = target: T1, P-gp; experiment: P-gp inhibition assay (cellular uptake) in EA.hy926 cells; assay type: cell-based
Experimental: as §1

[4] = tested on: dopamine D3 receptor; experiment: Dynamic small-animal PET recordings; assay type: in vivo; conditions: rat
Experimental: Small-animal PET imaging studies were conducted with male Sprague Dawleys rats (250–300 g) on a Inveon microPET scanner (Siemens Healthcare, Erlangen, Germany) under isoflurane (3%) anesthesia. After intravenous injection of [^18F]2b (10–15 MBq), dynamic emission recordings consisting of 13 frames of duration increasing from 30 s to 10 min were acquired to a total of 60 min. For displacement studies BP897 (1 mg/kg) was administered 30 min prior to radioligand injection. Dynamic emission images were corrected for attenuation and decay, and reconstructed by the iterative maximum a posteriori estimation, using software installed in the Inveon PET for dead time and random correction. The dynamic PET scan was then evaluated using the software Amide. The regions of interest were evaluated voxel based and the mean activity in %ID/g of each frame calculated.

[5] = Binding to proteins in human plasma in vitro; assay type: in vitro ADME; conditions: human vs rat plasma
Experimental: (§2) The free fraction in vitro was determined by adding the respective radioligand (100 kBq) to plasma or CSF (200 µL) and mixed vigorously. Aliquots of 20–50 µL were transferred to size exclusion chromatography columns (MicroSpin G-50; GE Healthcare GmbH, Solingen, Germany, centrifuged for two min at 2000 rpm, and the radioactivity in the filtrate and in the resin were measured in the gamma-counter. Three independent experiments were performed in triplicates.

[6] = tested on: dopamine D3 receptor; experiment: Ex vivo autoradiography of rat brain sections; assay type: in vivo
Experimental: Male Sprague Dawley rats (250–300 g) were injected with 20 MBq of [^18F]2b intra-venous under isoflurane (4%) anesthesia. For blocking studies BP897 (1 mg/kg) was administerd 30 min prior to radioligand injection. Rats were sacrificed by decapitation 30 min post radioligand injection and brains were removed and frozen in cooled hexane at −70 °C. Coronal and horizontal brain sections (12 µm) were cut on a cryostat microtome (HM550, Microm) and thaw-mounted on covered glass slides (Histobond®). The glass slides were placed on a phosphor screen (Fujitsu) over night. The screens were analyzed with a DUERR Medical HD-CR 35 Bio (Raytest) and evaluated using the software AIDA image analyzer (Raytest). Afterwards the sections were HE stained and ascribed to figures in the rat brain atlas. Binding in the regions of interest were evaluated as ratio of the activity in the region of interest through background activity. Binding in the cerebral matter of the respective sections was defined as background activity.

[7] = target: T2, D3 receptor in rat brain (Rattus norvegicus, UniProt P19020); experiment: Saturation binding assay on rat brain sections; conditions: for Bmax: rat brain sections, n = 4
T2 construct: from tissue; host or cells: brain cryosections (12 µm) of male Wistar rats
T2 sequence (P19020 whole entry): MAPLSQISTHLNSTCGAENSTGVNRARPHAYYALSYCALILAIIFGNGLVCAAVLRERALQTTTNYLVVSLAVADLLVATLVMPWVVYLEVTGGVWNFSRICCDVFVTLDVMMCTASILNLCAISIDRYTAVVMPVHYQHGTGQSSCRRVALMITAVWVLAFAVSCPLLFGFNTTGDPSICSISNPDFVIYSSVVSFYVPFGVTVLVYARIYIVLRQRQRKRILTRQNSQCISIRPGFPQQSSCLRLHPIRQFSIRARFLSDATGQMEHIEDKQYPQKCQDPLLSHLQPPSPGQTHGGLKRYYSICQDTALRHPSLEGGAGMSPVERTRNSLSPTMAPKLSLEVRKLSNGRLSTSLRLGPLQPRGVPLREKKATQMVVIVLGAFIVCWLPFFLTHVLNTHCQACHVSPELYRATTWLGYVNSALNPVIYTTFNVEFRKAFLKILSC

[8] = set-up: method as in PMID 24339325, PMID 26707848; conditions: experimental, pH 7.4, n = 6, previously reported; cited from earlier work
[9] = Free fraction in rat plasma; assay type: in vitro ADME; conditions: rat plasma, Figure 3b
Experimental: as §2
For the ex vivo determination of the radioligands binding to proteins the respective tracer (15 MBq) was administered intravenous to male Sprague Dawley rats (200–250 g) under isoflurane anesthesia. Blood samples were drawn intravenous after 5, 15 and 30 min and centrifuged for 5 min at 2000 rpm in heparin-coated vials. An aliquot of 50 µL was taken from the supernatant and added to an equal volume of water (10% TFA). The protein precipitate was centrifuged off for 5 min at 25,000 rpm and analyzed together with a further 50 µL aliquot of the supernatant in the gamma-counter. Two independent experiments were performed.

[10] = lateral ventricle, coronal section (Interaural 4.70, Bregma −4.30)
[11] = third ventricle, horizontal section (Interaural 5.90, Bregma −4.10)

percentage inside the cells [2]: 10%
influence of cyclosporin-A on cellular uptake ([2]; with vs without cyclosporin-A): did not increase the uptake
percentage inside the cells [3]: 5%
influence of cyclosporin-A on cellular uptake ([3]; with vs without cyclosporin-A): did not increase the uptake
uptake in the third and lateral ventricle [4]: approximately 0.25 %ID/g
uptake in the pituitary gland ([4]; 30 min p.i.): 0.8 %ID/g
uptake in the pituitary gland ([4]; after approximately 5 min): 0.94 %ID/g
maximum uptake in the cerebral matter ([4]; at 65 s post intravenous injection): 0.14 %ID/g
uptake in the pituitary gland ([4]; end of the recording): 0.76 %ID/g
uptake in the fourth ventricle ([4]; initial uptake, constant over the 60 min of recording): 0.4 %ID/g
uptake in the cerebral matter after wash-out ([4]; over the 60 min of recording): 0.07 %ID/g
binding to human plasma higher than in rat plasma [5]: 20%–30%
ratio ROI/background ([6]; lateral and third ventricle, section (Interaural 5.70, Bregma −3.30)): 22
ratio ROI/background ([6]; lateral and third ventricle, sections (Interaural 10.60, Bregma 1.60) and (Interaural 7.70, Bregma −1.30), 30 min p.i.): ~15
ratio ROI/background [6, 10]: ~30
ratio ROI/background [6, 11]: 32
Kd ([7]; all three regions): ~0.1 nM
Kd ([7]; caudate putamen): 0.08 ± 0.06 nM
Bmax ([7]; caudate putamen (striatum)): 16.58 pmol/g and 16.58 ± 1.63 pmol/g
Kd ([7]; islands of calleja): 0.1 ± 0.01 nM
Bmax ([7]; islands of calleja): 20.38 pmol/g and 20.38 ± 2.67 pmol/g
Kd ([7]; nucleus accumbens): 0.11 ± 0.07 nM
Bmax ([7]; nucleus accumbens): 19.54 pmol/g and 19.54 ± 1.85 pmol/g
free radioligand in rat plasma [9]: 80%
SMILES: COc1ccccc1N1CCN(CCCCNC(=O)/N=N/c2ccc([18F])cc2)CC1 [[^18F]2b]
decomposition in human serum [1]: no decomposition was observed
blocking of fourth ventricle uptake with BP897 ([4]; BP897 1 mg/kg): 50%
decrease of initial and mean pituitary gland uptake by blocking with BP897 ([4]; BP897 1 mg/kg): 35%
displacement by BP897 ([6]; lateral and third ventricle, sections (Interaural 10.60, Bregma 1.60) and (Interaural 7.70, Bregma −1.30)): no displacement
displacement with BP897 [6, 10]: 60%
displacement by BP897 ([6]; section (Interaural 5.70, Bregma −3.30)): 40%–50%
displacement through BP897 [6, 11]: 50%
Log D7.4 [8]: 2.10 ± 0.10
